Key:
[1] = test system: P693 lung carcinoma xenografts; assay: P693 lung carcinoma xenografts in nude mice, tumour volume; type: in vivo; conditions: cisplatin 5mg/kg/week intraperitoneally for five weeks, absence of DEX; Fig. 1a
Experimental: • (a) Human epidermoid lung cancer cells (P693) were injected into nude mice. At a tumour volume of 500 mm^3 weekly treatment with cisplatin (5mg/kg/week) was started. Cisplatin was injected intraperitoneally in the absence (CIS) or presence (DEX/CIS) of DEX which was added to the drinking water (0.28 mg/L) for the duration of the experiment. […] As controls, tumor growth of xenografts from mice which received neither cisplatin nor DEX (CO) or from mice which received DEX only (DEX) was determined. The tumour volume in each animal was measured at weekly intervals for a period of 5 weeks. Data are presented as the means +/- SD of 6 to 8 animals. • (b) The human cervical carcinoma cell lines HeLa and P5 were γ-irradiated (10 Gy) or treated with cisplatin (2 µg/ml) in the absence (white bars) or presence (black bars) of DEX (1 µM). The percentage of apoptosis was measured in untreated (CO) and stimulated cells by annexin-staining and FACS-analysis at the time points indicated. (c) P5, P693 and human leukemic T cells (CEM) cells were treated with cisplatin (2 µg/ml) in the absence or presence of DEX as indicated. 24 and 48 h following treatment cells were lysed and caspase-3 activity was determined by a fluorescent caspase-3 assay and spectroscopy.

caspase-9 and -6 [2] = assay: Fluorometric caspase-6/9 activity assay in CEM cells; type: cell-based, human; conditions: cisplatin 2 µg/ml alone, Fig. 5a
Experimental: (§1) • (a) P693 and CEM cells were treated with cisplatin (2 µg/ml) in the absence or presence of DEX (1 µM) as indicated. 24 and 48 h following treatment cells were lysed and caspase-9 activity was determined using a fluorescent caspase-9 assay and spectroscopy. • (b) P5 and CEM cells were treated as described above. 24 h after stimulation Apaf-1 was immunoprecipitated from the cell extracts using a […]. Aliquotes of the precipitates were separated by three different gels and analysed by Western blotting using rabbit polyclonal Apaf-1, mAb cytochrome c or caspase-9 antibodies. The antibody heavy chain band (IgGH) ensures equal conditions. […]
(§2) • (A) Cell culture. […] The mice were given 0.28 mg/L DEX in drinking water, and the amount of water consumed was monitored. […] The tumour volumes were measured using callipers, and calculated using, as an approximation, the formula for volume of a hemi-ellipsoid: π(width^2 x length)/6. […] Early apoptotic changes were identified by staining of cells with fluoresceinthiocyanate (FITC)-conjugated annexin V and propidium iodide (Becton Dickinson, Heidelberg, Germany) and analysed by flow cytometry (FACScan, Becton Dickinson) as described (Herr et al., EMBO J. 16 (1997), 6200-6208) • (E) Immunohistochemistry. […] Bound antibodies were detected by FITC conjugated anti-mouse or anti-rabbit IgG (Molecular Probes Europe, Leiden, The Netherlands). […]

caspase-9 and -6 [3] = assay: Fluorometric caspase-6/9 activity assay in P693 cells; type: cell-based, human; conditions: cisplatin 2 µg/ml alone, Fig. 5a
Experimental: as §1, §2

N.N.[Cl][Pt][Cl] [cisplatin]
tumour growth [1]: profound reduction of tumour growth
caspase-6/9 activity (caspase-9 and -6 [2]): induced 24 h following cisplatin in P693 and CEM cells with increasing activity at 48 h
caspase-6/9 activity (caspase-9 and -6 [3]): induced 24 h following cisplatin in P693 and CEM cells with increasing activity at 48 h

— patent publication EP1283052A1, “Pharmaceutical composition containing caspase-8 and /or caspase-9 useful for overcoming glucocorticoid- and cancer therapy-induced apoptosis of tumours” (Deutsches Krebsforschungszentrum Stiftung des öffentlichen …, priority 2001, dated 2003)
